In PMC6001238, “Iterative Chemical Engineering of Vancomycin Leads to Novel Vancomycin Analogs With a High in Vitro Therapeutic Index” (Frontiers in Microbiology, 2018):
In brackets after ≈: the same amount, converted by molar mass. Like-named read-outs stand apart in the source and are kept apart here.

Experiments:
[1] = system: human T-lymphocyte (CEM) cells; assay: Cytostatic activity, CEM cell proliferation; assay type: cell-based; conditions: mean ± SD of three experiments; highest concentration tested 250 µM; 3 days; read-out: Toxicity (IC50) CEM
Outline: (§1)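 Readout: Coulter cell number after drug exposure at 37°C. Durations differ by line (L1210 2 days; CEM 3 days; HeLa 4 days). Stock suspension 300,000–500,000 cells/mL, diluted by mixing with compound. Endpoint: IC50 vs negative control.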

[2] = system: VE 149 (VanB); assay: MIC, VanB-type VRE strain VE 149; assay type: cell-based, Enterococcus; conditions: VE 149, VanB; read-out: MIC
Outline: (§2)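 Serial dilutions in broth, set up per CLSI guidance, gave the MIC. Where noted, test analogues or comparator antibiotics were combined with vancomycin at 10 μM final. Controls: ultrapure water, broth without inoculum.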

[3] = system: VE 150 (VanB); assay: MIC, VanB-type VRE strain VE 150; assay type: cell-based, Enterococcus; conditions: VE 150, VanB; read-out: MIC
Outline: as §2

[4] = system: VE 157 (VanB); assay: MIC, VanB-type VRE strain VE 157; assay type: cell-based, Enterococcus; conditions: VE 157, VanB; read-out: MIC
Outline: as §2

[5] = system: VE 82 (VanC1); assay: MIC, VanC1-type VRE strain VE 82; assay type: cell-based, Enterococcus gallinarum; conditions: VE 82, VanC1; read-out: MIC
Outline: as §2

[6] = system: human cervix carcinoma (HeLa) cells; assay: Cytostatic activity, HeLa cell proliferation; assay type: cell-based; conditions: mean ± SD of three experiments; highest concentration tested 250 µM; 4 days; read-out: Toxicity (IC50) HeLa
Outline: as §1

[7] = system: MRSA KS89; assay: MIC, broth microdilution, MRSA KS89; assay type: cell-based, Staphylococcus aureus
Outline: as §2

[8] = system: E. faecalis VRE 37; assay: MIC, broth microdilution, vancomycin-resistant E. faecalis VRE 37 (VanA); assay type: cell-based, Enterococcus faecalis
Outline: as §2

[9] = system: E. faecalis VRE 29; assay: MIC, broth microdilution, vancomycin-resistant E. faecalis VRE 29 (VanA); assay type: cell-based, Enterococcus faecalis
Outline: as §2

[10] = system: MRSA KS6; assay: MIC, broth microdilution, MRSA KS6; assay type: cell-based, Staphylococcus aureus
Outline: as §2

[11] = system: L1210, CEM and HeLa cell lines; assay: Cytostatic activity, average or summary over L1210, CEM and HeLa; assay type: cell-based
Outline: as §1

[12] = system: S. aureus VSSA (ATCC 6538); assay: MIC, broth microdilution, vancomycin-sensitive S. aureus (VSSA/MSSA, ATCC 6538); assay type: cell-based, Staphylococcus aureus
Outline: as §2

[13] = system: MRSA KS1; assay: MIC, broth microdilution, MRSA KS1; assay type: cell-based, Staphylococcus aureus
Outline: as §2

[14] = system: S. aureus VISA/HIP5827; assay: MIC, broth microdilution, vancomycin-intermediate S. aureus VISA HIP5827; assay type: cell-based, Staphylococcus aureus
Outline: as §2

[15] = system: E. faecalis VRE 6; assay: MIC, broth microdilution, vancomycin-resistant E. faecalis VRE 6 (VanA); assay type: cell-based, Enterococcus faecalis
Outline: as §2

[16] = system: MRSA KS2; assay: MIC, broth microdilution, MRSA KS2; assay type: cell-based, Staphylococcus aureus
Outline: as §2

[17] = system: S. aureus VRSA; assay: MIC, broth microdilution, vancomycin-resistant S. aureus (VRSA); assay type: cell-based, Staphylococcus aureus
Outline: as §2

[18] = system: E. faecalis VRE 53; assay: MIC, broth microdilution, vancomycin-resistant E. faecalis VRE 53 (VanA); assay type: cell-based, Enterococcus faecalis
Outline: as §2

[19] = system: Murine leukemia (L1210) cells; assay: Cytostatic activity, L1210 cell proliferation; assay type: cell-based; conditions: mean ± SD of three experiments; highest concentration tested 250 µM; 2 days; read-out: Toxicity (IC50) L1210
Outline: as §1

[20] = system: 33 clinical VRE isolates; assay: MIC against a set of 33 clinical VRE isolates (range, MIC50, TI); assay type: cell-based, Enterococcus faecalis
Outline: as §2

[21] = system: Clostridium difficile ATJ ribotype 014/20; assay: MIC, plate drop assay, C. difficile ATJ ribotype 014/20; assay type: cell-based; conditions: C. difficile ATJ ribotype 014/20
Outline: (§3)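 Twofold dilution series of test compounds were spotted onto C. difficile lawns in 0.4% BHI agar containing added calcium and magnesium salts. After overnight anaerobic incubation at 37°C, growth inhibition was scored by spot clearing; triplicate runs, ultrapure water negative control.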

[22] = system: VE 148 (VanB); assay: MIC, VanB-type VRE strain VE 148; assay type: cell-based, Enterococcus; conditions: VE 148, VanB; read-out: MIC
Outline: as §2

[23] = system: Clostridium difficile AIU ribotype 027; assay: MIC, plate drop assay, C. difficile AIU ribotype 027; assay type: cell-based; conditions: for MIC-fold improvement vs. vancomycin: C. difficile AIU ribotype 027
Outline: as §3

[24] = system: MRSA; assay: Minimum bactericidal concentration against MRSA; assay type: cell-based, Staphylococcus aureus
Experimental: Plates were incubated overnight at 37°C and colony growth was inspected.

[25] = system: 24 clinical MRSA isolates; assay: MIC against a set of 24 clinical MRSA isolates (range, MIC50, TI); assay type: cell-based, Staphylococcus aureus
Outline: as §2

[26] = system: E. faecalis VSE 1; assay: MIC, broth microdilution, vancomycin-sensitive E. faecalis (VSE 1); assay type: cell-based, Enterococcus faecalis
Outline: as §2

[27] = system: VE 152 (VanB); assay: MIC, VanB-type VRE strain VE 152; assay type: cell-based, Enterococcus; conditions: VE 152, VanB; read-out: MIC
Outline: as §2

CN[C@H](CC(C)C)C(=O)N[C@H]1C(=O)N[C@@H](CC(N)=O)C(=O)N[C@H]2C(=O)N[C@H]3C(=O)N[C@H](C(=O)N[C@H](C(=O)NCC(=O)Nc4ccc5c(c4)Cc4ccccc4-5)c4cc(O)cc(O)c4-c4cc3ccc4O)[C@H](O)c3ccc(c(Cl)c3)Oc3cc2cc(c3O[C@@H]2O[C@H](CO)[C@@H](O)[C@H](O)[C@H]2O[C@H]2C[C@](C)(N)[C@H](O)[C@H](C)O2)Oc2ccc(cc2Cl)[C@H]1O [Vanc-42]
IC50 [1]: 92 ± 3 µM
MIC [2]: 3.13 µM (≈ 5.23 µg/mL)
MIC [3]: 3.13 µM (≈ 5.23 µg/mL)
MIC [4]: 3.13 µM (≈ 5.23 µg/mL)
MIC [5]: 1.56 µM (≈ 2.6 µg/mL)
IC50 [6]: > 250 µM
MIC-fold improvement vs. vancomycin ([7]; MRSA KS8, ratio of MIC of vancomycin and MIC of analogue): 4
MIC ([7]; Staphylococcus aureus MRSA KS8, read-out: MIC): 0.20 µM (≈ 0.334 µg/mL)
MIC ([8]; Enterococcus faecalis VRE 37 (vancomycin-resistant), read-out: MIC): 3.13 µM (≈ 5.23 µg/mL)
MIC-fold improvement vs. vancomycin ([8]; VRE 37, ratio of MIC of vancomycin and MIC of analogue): 128
MIC ([9]; Enterococcus faecalis VRE 29 (vancomycin-resistant), read-out: MIC): 1.56 µM (≈ 2.6 µg/mL)
MIC-fold improvement vs. vancomycin ([9]; VRE 29, ratio of MIC of vancomycin and MIC of analogue): 256
MIC-fold improvement vs. vancomycin ([10]; MRSA KS6, ratio of MIC of vancomycin and MIC of analogue): 4
MIC ([10]; Staphylococcus aureus MRSA KS6, read-out: MIC): 0.20 µM (≈ 0.334 µg/mL)
IC50 ([11]; average IC50 used for TI in Table S5, >250 entered as 250, read-out: IC50): 173 µM
IC50 ([11]; average of L1210, CEM and HeLa, read-out: Toxicity (IC50) Average): 173 µM
MIC ([12]; Staphylococcus aureus VSSA, read-out: MIC): 0.78 µM (≈ 1.3 µg/mL)
MIC-fold improvement vs. vancomycin ([12]; VSSA, ratio of MIC of vancomycin and MIC of analogue): 1
MIC-fold improvement vs. vancomycin ([13]; MRSA KS1, ratio of MIC of vancomycin and MIC of analogue): 2
MIC ([13]; Staphylococcus aureus MRSA KS1, read-out: MIC): 0.39 µM (≈ 0.651 µg/mL)
MIC ([14]; Staphylococcus aureus VISA/HIP5827, read-out: MIC): 0.78 µM (≈ 1.3 µg/mL)
MIC-fold improvement vs. vancomycin ([14]; VISA/HIP5827, ratio of MIC of vancomycin and MIC of analogue): 8
MIC ([15]; Enterococcus faecalis VRE 6 (vancomycin-resistant), read-out: MIC): 0.78 µM (≈ 1.3 µg/mL)
MIC-fold improvement vs. vancomycin ([15]; VRE 6, ratio of MIC of vancomycin and MIC of analogue): 256
MIC-fold improvement vs. vancomycin ([16]; MRSA KS2, ratio of MIC of vancomycin and MIC of analogue): 4
MIC ([16]; Staphylococcus aureus MRSA KS2, read-out: MIC): 0.20 µM (≈ 0.334 µg/mL)
MIC ([17]; Staphylococcus aureus VRSA, read-out: MIC): 1.56 µM (≈ 2.6 µg/mL)
MIC-fold improvement vs. vancomycin ([17]; VRSA, ratio of MIC of vancomycin and MIC of analogue): 64
MIC ([18]; Enterococcus faecalis VRE 53 (vancomycin-resistant), read-out: MIC): 12.5 µM (≈ 20.9 µg/mL)
MIC-fold improvement vs. vancomycin ([18]; VRE 53, ratio of MIC of vancomycin and MIC of analogue): 32
IC50 [19]: 177 ± 103 µM
MIC Range ([20]; 33 clinical VRE isolates): 0.39 to 6.25 µM
TI (IC50/MIC50) ([20]; in vitro therapeutic index, VRE): 111
MIC50 ([20]; median MIC, 33 clinical VRE isolates, read-out: MIC50): 1.56 µM (≈ 2.6 µg/mL)
MIC-fold improvement vs. vancomycin [21]: up to 45
MIC-fold improvement vs. vancomycin ([21]; listed as Vanc- 42): 22
MIC [22]: 3.13 µM (≈ 5.23 µg/mL)
MIC-fold improvement vs. vancomycin [23]: ≤ 58
MIC ([23]; C. difficile AIU ribotype 027, plate drop assay): 0.78 µM (≈ 1.3 µg/mL)
MIC-fold improvement vs. vancomycin ([23]; listed as Vanc- 42): 58
MBC relative to MIC [24]: MBC equaling their MIC values
MIC Range ([25]; 24 clinical MRSA isolates): 0.10 to 0.39 µM
TI (IC50/MIC50) ([25]; in vitro therapeutic index, MRSA): 865
MIC50 ([25]; median MIC, 24 clinical MRSA isolates, read-out: MIC50): 0.20 µM (≈ 0.334 µg/mL)
MIC ([26]; Enterococcus faecalis VSE 1 (vancomycin-sensitive), read-out: MIC): 0.20 µM (≈ 0.334 µg/mL)
MIC-fold improvement vs. vancomycin ([26]; VSE 1, ratio of MIC of vancomycin and MIC of analogue): 8
MIC [27]: 3.13 µM (≈ 5.23 µg/mL)
